From patent US6624182B1, “Hydroxyphenylvinylthiazoles” (Ciba Specialty Chemicals Corporation, priority 1999, dated 2003) come the findings set out here.

The subject of one experiment is P. aeruginosa. Briefly: Determination of the minimum inhibitory concentration (MIC value) in microtitre plates. Format: cell-based, Pseudomonas aeruginosa CIP A-22. The settings on record: Pseudomonas aeruginosa; optical density at 620 nm, 48 hours at 37° C., MIC = ≦20% growth; tested at 100; 10 and 1 ppm (approximate values); (2), (3), (4) at 120; 60; 30; 15; 7.5; 3.75 ppm. The essentials:
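P. aeruginosa CIP A-22 at 1−5×10^6 KBE/ml, diluted 1:100 in CASO bouillon, exposed to 1:2 serial dilutions of DMSO-dissolved compound for 48 h at 37 °C, in duplicate. Growth read by OD 620 nm; MIC is the lowest concentration giving ≤20% growth relative to growth control.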

In a further experiment the test system is A. niger. Described as above. The class given is cell-based, Aspergillus niger ATCC 6275. Conditions: Aspergillus niger, 120 h; optical density at 620 nm, 5 days at 28° C., MIC = ≦20% growth; tested at 100; 10 and 1 ppm (approximate values); (2), (3), (4) at 120; 60; 30; 15; 7.5; 3.75 ppm. In short, it runs like this: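 A. niger ATCC 6275 spores, adjusted to 1−5×10^6 KBE/ml and diluted 1:100 in Sabouraud 2% glucose bouillon, were exposed to 2-fold dilutions of DMSO-dissolved compounds for 5 days at 28°C. Growth read as OD at 620 nm. MIC is the lowest concentration giving ≤20% growth versus growth control, tested in duplicate.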

As a reminder, the MIC is the least concentration at which growth counts as inhibited. Take `Oc1ccc(/C=C/c2nc(-c3ccccc3)cs2)cc1` [Compound of formula (4)]: the MIC against P. aeruginosa and against A. niger was greater than 100 µg/mL in each case.

In the case of `CC(C)(C)c1csc(/C=C/c2ccccc2O)n1` [Compound of formula (3)], the MIC in the experiment on P. aeruginosa and against A. niger was greater than 100 µg/mL each time.

As for `Oc1ccc(/C=C/c2nc(-c3ccc(F)cc3)cs2)cc1` [Compound of formula (2)], the MIC against P. aeruginosa and in the experiment with A. niger was greater than 100 µg/mL in each case.
